Measurements taken from patent publication EP1147102B1, “HETEROARYL ACETYLENIC SULFONAMIDE AND PHOSPHINIC ACID AMIDE HYDROXAMIC ACID TACE INHIBITORS” (Wyeth Holdings Corporation, priority 1999, dated 2000).

Tested on: THP-1 cells
Assay: Human monocytic THP-1 cell differentiation assay for soluble proteins (THP soluble protein assay)
Type: cell-based
Settings: LPS-stimulated THP-1 cells
From the text: Mitogenic stimulation of THP-1 cells cause differentiation into macrophage like cells with concomitant secretion of tumor necrosis factor (TNF-α) and TNF receptor (TNF-R p75/80 and TNF-R p55/60) and Interleukin-8 (IL-8), among other proteins. In addition, non-stimulated THP-1 cells shed both the p75/80 and the p55/60 receptors over time. The release of membrane bound TNF-α and possibly TNF-R p75/80 and TNF-R p55/60, but not IL-8, is mediated by an enzyme called TNF-α converting enzyme or TACE.
THP-1 cells (from ATCC) are a human monocytic cell line which were obtained from the peripheral blood of a person with acute monocytic leukemia. […]
To perform an assay, the THP-1 cells are co-incubated in a 24 well plate with […] of a 24 mg/ml stock of Lipopolysacharide (LPS) (Calbiochem Lot# B13189) at 37°C in 5% CO2 at a concentration of 1.091 x 10^6 cells/ml (1.1 ml/well) for a total of 24 hours. […] Compounds can be evaluated for their effect on basal (non-stimulated) shedding of the receptors by replacing the LPS with […] of THP-1 media. […]
In addition, at the 24 hours timepoint, and the cells for each treatment group are collected by resuspension in 500 µl/well of THP-1 media and transferred into a FACS tube. […] The samples are run on a Becton Dickinson FaxCaliber FLOW cytometry machine and the amount of dye taken up by each cell is measured in the high red wavelength (FL3). […]

For `CC#CCOc1ccc(S(=O)(=O)N(C)c2c(C(=O)NO)cc(OC)nc2OC)cc1` [Example 33, 3-[Methyl-(4-but-2-ynyloxy-benzenesulfonyl)-amino]-N-hydroxy-2,6-dimethoxyisonicotinamide], the inhibition at 3 µM was 31%.
